The text below walks through data of US20200289425A1, “CARBON DOT LIPOSOMES AND USES THEREOF” (National Taiwan University, priority 2017, published 2020).

In data set [1] the test system is colon cancer cells C2BBE1. The data set can be described thus: Cancer cell growth, Alamar Blue assay, C2BBE1. The class given is cell-based. The following applies: C2BBE1, 48 hr culture. An excerpt: (§1) Cell lines and cell culture. A549, Hela, MCF-7, Huh7, C2BBe1, BxPC-3, A375.S2, CCRF-CEM, TrampC1 and NIH 3T3 cells were obtained from the American Type Culture Collection (ATCC; Manassas, Va., USA). A549, Hela, Huh7, A375.S2, TrampC1, and NIH 3T3 cells were maintained in Dulbecco's minimal essential medium (DMEM) supplemented with 1.5 g/L sodium bicarbonate,10% fetal bovine serum (FBS), 1.0% antibiotic-antimycotic, L-glutamine (2.0×10^−3 M), and 1.0% nonessential amino acids. MCF-7, BxPC-3 and CCRF-CEM cells were cultured in Roswell Park Memorial Institute (RPMI) medium supplemented with 10% FBS, and 1.0% antibiotic-antimycotic. C2BBe1 cells were grown in DMEM 1.5 g/L sodium bicarbonate, 1.0% antibiotic-antimycotic, L-glutamine (2.0×10^−3 M), and 1.0% nonessential amino acids, 10 mg/L human holo-transferrin, and 10% fetal bovine serum. The cell number and viability of the cells were determined by the trypan blue exclusion method and Alamar Blue assay, respectively.
(§2) The assay is designed to measure quantitatively the proliferation of cell by use of a fluorometric/colorimetric growth indicator based on detection of metabolic activity. Specifically, the alamar blue system incorporates an oxidation-reduction (REDOX) indicator that both fluoresces and changes color in response to chemical reduction of growth medium resulting from cell growth. As cells being tested grow, innate metabolic activity results in a chemical reduction of the system. Continued growth maintains a reduced environment while inhibition of growth maintains an oxidized environment. Reduction related to growth causes the REDOX indicator to change from oxidized (non-fluorescent, blue) form to reduced (fluorescent, red) form.
(§3) Cell viability was determined by Alamar Blue assay in accordance with the manufacturer's protocols.
(The colour change of resazurin is a common sign of viable cells or microbes.)

Data set [2] is described as follows: Degradation of drugs, standing in water for 48 hrs (HPLC or ICP MS). The data set is classed as physicochemical. Conditions: standing for 48 hrs. Here is the method:
In this example, the degradation of drug molecules encapsulated in the drug containing vesicles and that of free drugs were investigated. To this purpose, the drug containing vesicles of examples 1.2 or 1.3 or the free drug were placed in water, and let standing for 48 hrs, then the amounts of each drugs in the water were measured by HPLC or ICP MS.

For data set [3], the system named is breast cancer cells MCF7. Briefly: Cancer cell growth, Alamar Blue assay, MCF7. The class given is cell-based. Conditions: MCF7, 48 hr culture.
From the text: as §1, §2, §3

For data set [4], the system named is cervical cancer cells Hela. Briefly: Cancer cell growth, Alamar Blue assay, HeLa. The data set is classed as cell-based. The following applies: 48 hr culture.
From the text: as §1, §2, §3

Data set [5] deals with hepatoma cells Huh7. The data set can be described thus: Cancer cell growth, Alamar Blue assay, Huh7. The data set is classed as cell-based. Conditions: Huh7, 48 hr culture.
From the text: as §1, §2, §3

Data set [6] concerns lung cancer cells A549. Briefly: Cancer cell growth, Alamar Blue assay, A549. The data set is classed as cell-based. The following applies: A549, 48 hr culture.
From the text: as §1, §2, §3

The test system of data set [7] is pancreatic cancer cells BxPC3. The data set can be described thus: Cancer cell growth, Alamar Blue assay, BxPC3. The class given is cell-based. Conditions: BxPC3, 48 hr culture.
From the text: as §1, §2, §3

Data set [8] relates to A375.S2 cells. Briefly: Cancer cell growth, Alamar Blue assay, A375. The class given is cell-based. Conditions: A375, 48 hr culture.
From the text: as §1, §2, §3

For data set [9] the following is noted: free drug; cited from earlier work.

Usually IC50 stands for the concentration that gives 50% inhibition. Regarding `Nc1ccn([C@@H]2O[C@H](CO)[C@@H](O)C2(F)F)c(=O)n1` [Gemcitabine], the IC50 came out at 170 µM in data set [1] (Homo sapiens); 48 µM in [3] (Homo sapiens); 94 µM in data set [4] (Homo sapiens); 1 µM in [5] (Homo sapiens, Huh-7); 17 µM in data set [6] (Homo sapiens); 51 µM in data set [7] (Homo sapiens, BXPC-3). The molecule further returned an IC50 in data set [8] (A375-S2) of 66 µM. In addition, in data set [2], the “Percentage of drugs remained un-degraded” value worked out at 58.8%. Also, the “Solubility of the anti-cancer drug” value in data set [9] is on record as 51,000 mg/L.
For `CC(=O)O[C@@]12CO[C@@H]1C[C@H](O)[C@@]1(C)C(=O)[C@H](O)C3=C(C)[C@@H](OC(=O)[C@H](O)[C@@H](NC(=O)OC(C)(C)C)c4ccccc4)C[C@@](O)([C@@H](OC(=O)c4ccccc4)[C@H]21)C3(C)C` [Docetaxel], the IC50 in [1] (Homo sapiens) was 100 µM; in data set [3] (Homo sapiens), 6.3 µM; in data set [4] (Homo sapiens) it was 0.67 µM; in data set [5] (Homo sapiens, Huh-7) it was 0.01 µM; in data set [6] (Homo sapiens) it was 1 µM; in data set [7] (Homo sapiens, BXPC-3) it was 4.7 µM. Half-maximal inhibition in data set [8] (A375-S2) (IC50) was put at 29 µM. Also, the “Percentage of drugs remained un-degraded” value in data set [2] came to 83.6%. The “Solubility of the anti-cancer drug” value in data set [9] was 0.27 mg/L.
As for `CC(=O)O[C@H]1C(=O)[C@@]2(C)[C@H]([C@H](OC(=O)c3ccccc3)[C@]3(O)C[C@H](OC(=O)[C@H](O)[C@@H](NC(=O)c4ccccc4)c4ccccc4)C(C)=C1C3(C)C)[C@]1(OC(C)=O)CO[C@@H]1C[C@@H]2O` [Paclitaxel], the “Solubility of the anti-cancer drug” value in data set [9] is given as 5.6 mg/L.
As to `COc1cccc2c1C(=O)c1c(O)c3c(c(O)c1C2=O)C[C@@](O)(C(=O)CO)C[C@@H]3O[C@H]1C[C@H](N)[C@H](O)[C@H](C)O1` [Doxorubicin], the IC50 in data set [1] (Homo sapiens) was found to be 13 µM; in [3] (Homo sapiens), 2 µM; in data set [4] (Homo sapiens), 1.7 µM; in data set [5] (Homo sapiens, Huh-7), 0.49 µM; in [6] (Homo sapiens), 0.04 µM; in data set [7] (Homo sapiens, BXPC-3) it was 0.58 µM. The IC50 in data set [8] (A375-S2) was 0.75 µM. In addition, the “Percentage of drugs remained un-degraded” value in [2] is recorded as 69.5%. Further, the “Solubility of the anti-cancer drug” value in data set [9] was 2,600 mg/L.
`CC(C)C[C@H](NC(=O)[C@H](CCc1ccccc1)NC(=O)CN1CCOCC1)C(=O)N[C@@H](Cc1ccccc1)C(=O)N[C@@H](CC(C)C)C(=O)[C@@]1(C)CO1` [Carfilzomib]: the IC50 in data set [1] (Homo sapiens) came to 1.6 µM; in data set [3] (Homo sapiens), 0.1 µM; in [4] (Homo sapiens), 1.3 µM; in data set [5] (Homo sapiens, Huh-7), 0.7 µM; in data set [6] (Homo sapiens), 1.8 µM; in data set [7] (Homo sapiens, BXPC-3), 0.08 µM. Further, the IC50 in data set [8] (A375-S2) was found to be 750 µM. The “Percentage of drugs remained un-degraded” value in data set [2] worked out at 48.5%.
Consider `N.N.[Cl][Pt][Cl]` [Cisplatin], for which the IC50 came out at 11 µM in data set [1]; 33 µM in data set [3]; 3.1 µM in data set [4]; 6.3 µM in [5]; 6.5 µM in [6]; 4.8 µM in data set [7]. The same molecule gave an IC50 in [8] of 9.2 µM.
